{"source": "paper PMC7738871", "about": "“Covalent modification of Keap1 at Cys77 and Cys434 by pubescenoside a suppresses oxidative stress-induced NLRP3 inflammasome activation in myocardial ischemia-reperfusion injury” (Theranostics, 2021)", "key": {"[1]": {"system": "Nrf2", "test": "Nrf2 nuclear translocation", "format": "cell-based, rat", "conditions": "PBA for 6 h", "procedure": "Total protein was isolated from H9c2 cells, primary mouse cardiomyocytes, RAW264.7 cells and heart tissue using 1X RIPA buffer containing phosphatase and proteinase inhibitors at 4 °C. After measurement of the concentration, the cell lysates were separated by sodium dodecyl sulphate polyacrylamide gel electrophoresis (SDS-PAGE) and transferred to polyvinylidene fluoride (PVDF) membranes. The membranes were blocked in Tris-buffered saline-Tween 20 (TBST) buffer with 5% BSA for 1 h and incubated with primary antibodies (1:1000 dilution) overnight at 4 °C. After the membranes was washed by TBST buffer for three times, they were incubated with horseradish peroxidase (HRP)-conjugated secondary mouse or rabbit antibodies (1:3,000 dilution) at room temperature (RT) for 1.5 h and then detected by SuperEnhanced chemiluminescence (ECL) reaction reagents (GBCBIO Technologies Inc., Guangzhou, Guangdong, China). […] After letting the membranes stand for 1-2 min, the bands of the respective proteins were detected with the exposure time of 10 ~60 s.\nAccording to previous experiences, Nrf2 nucleus translocation could be detected at 6 h. […] After several washes with PBS, the bound antibodies were detected by Alexa Fluor 594-conjugated goat anti-rabbit or Alexa Fluor 488-conjugated goat anti-mouse IgG secondary antibody at RT for 1 h. […]"}, "[2]": {"system": "OGD/R-induced H9c2 cells", "test": "OGD/R-induced injury, MTT viability, H9c2", "format": "cell-based, rat", "conditions": "H9c2, 10 and 30 μM, OGD 6 h, reperfusion 18 h", "procedure": "For OGD/R treatment, H9c2 cells were washed twice with phosphate buffered saline (PBS). The medium was changed to glucose and serum free DMEM, and H9c2 cells were incubated in an incubator with 95% N2 and 5% CO2 at 37 °C. After 6 h, the medium was replaced with DMEM containing 10% FBS and 1% PS. Then H9c2 cells were returned to a normal incubator with 5% CO2 balanced with air at 37 °C for the indicated time.\nCell viability was determined by MTT assays. PBA was prepared to a stock solution dissolved in dimethyl sulfoxide (DMSO). RAW264.7, H9c2 cells, primary mouse cardiomyocytes were treated with different doses of PBA, and DMSO only as control for 48 h for the toxicity. In addition, H9c2 cells or primary mouse cardiomyocytes were treated with the indicated doses of PBA, diazoxide as positive control, DMSO only as control, then cultured with or without OGD/R treatment. At the end of the experiments, MTT was added into each well at the concentration of 0.5 mg/ml, and incubated at 37 °C for 4 h. After removal of the supernatant, 150 μL of DMSO was added to solubilize the formazan products. And the solution was measured at the absorbance of 490 nm by a spectrophotometer (Thermo Fisher Scientific, MA, USA). The results of the MTT assay in all groups were normalized to the control group with DMSO only treatment."}, "[3]": {"system": "T1, interaction of Keap1 and Cul3", "T1 construct": "expressed in transfected cells; host or cells: 293T", "test": "Co-IP of Keap1 and Cul3 in 293T cells", "format": "cell-based, human", "procedure": "Alkylation of the BTB domain of Keap1 by covalent modifiers contributes to the disruption of the Keap1-Cul3 interactions, leading to Nrf2 activation. Next, we investigated the effect of PBA on the modulation of Nrf2 ubiquitination as Nrf2 stability is controlled by ubiquitin-mediated proteasomal degradation. First, 3X Flag-Keap1, Myc-Nrf2 and Ub plasmids were transfected into 293T cells and then, the cells were treated with 30 μM PBA for 20 h and 5 μM MG132 for another 4 h. Cell lysates were pulled down using anti-Myc beads, and immunopurified Nrf2 was examined for the occurrence of Ub by western blotting. […]\nFigure 6 PBA suppresses Keap1-mediated ubiquitination of Nrf2 by disrupting the interaction between Cul3 and Keap1. […] The cell lysates were immunoprecipitated using anti-Myc beads, and the ubiquitination level was evaluated using the anti-Ub antibody. […] The cell lysates were immunoprecipitated with the anti-Flag antibody, and the level of Nrf2 was assessed using the anti-Nrf2 antibody. […] The cell lysates were immunoprecipitated with the anti-Flag antibody, and the level of Cul3 was measured using the anti-Cul3 antibody. #p < 0.05, ##p < 0.01, ###p < 0.001, the control vs DMSO; *p < 0.05,**p < 0.01, ***p < 0.001, PBA or tBHQ vs DMSO. […] Cell viability was measured by MTT assays. #p < 0.05, ###p < 0.001, the control vs OGD/R; **p < 0.01, ***p < 0.001, OGD/R+PBA vs OGD/R."}}}
{"smiles": "C=C(COC(=O)C=Cc1ccc(O)c(O)c1)C(O)COC1OC(CO)C(O)C(O)C1O", "note": "(stereo not shown) [PBA, pubescenoside A]", "values": [{"measurement": "Nrf2 translocation into nucleus", "setting": "[1]", "result": "significantly promoted"}, {"measurement": "protection against OGD/R induced injury (cell viability, MTT)", "setting": "[2]", "result": "protected"}, {"measurement": "disruption of Keap1 and Cul3 interaction in mutant cells", "setting": "[3]; Cys77S and Cys434-Keap1 mutant cells", "result": "blocked"}, {"measurement": "interaction of Keap1 and Cul3 (Co-IP)", "setting": "[3]; WT-Keap1 293T cells, 30 μM PBA 12 h", "result": "could disrupt"}]}
